The values that follow come from patent US20050043331A1, “Substituted 3-(2,5-disubstituted)pyridyl-4-aryl pyrroles for treating inflammatory diseases” (priority 2002, published 2005).

The test system of experiment [1] is TNF-α. The experiment is described as follows: In-vitro whole cell assay for TNF-α inhibition (LPS-stimulated PBMC, ELISA). It counts as cell-based. The conditions noted are these: TNF-α by ELISA. The protocol:
Freshly obtained venous blood was anticoagulated with heparin, diluted with an equal volume of phosphate buffered saline (“PBS”) and placed in a sterile tube or other container. Aliquots (30 mL) of this mixture were transferred to centrifuge tubes, which were underlaid with Ficoll-Hypaque (15 mL). The prepared tubes were centrifuged at 400×g, without braking, for 30 min at room temperature. Approximately ½ to ⅔ of the platelet layer above the mononuclear cell band was removed with a pipette. The majority of the mononuclear cell layer was carefully removed using a pipette and these PBMC's were diluted with PBS and spun at 600×g for 15 min. The resulting PBMC's were washed with another portion of PBS and spun at 400×g for 10 min at room temperature. The recovered pellets were diluted in low endotoxin RPMI/1% FCS culture medium, and gave a cell concentration of 0.5-2.0×10^6 PMBC/ mL. A small volume of the suspension was removed for counting on a hemocytometer and the remaining preparation was centrifuged at 200×g for 15 min at room temperature. The recovered pelleted PMBC's were resuspended in RPMI/1% FCS to a concentration of 1.67×10^6/mL.
To run the assay, the PBMC suspension (180 μL) was transferred to duplicate wells of a 96-well flat-bottom microtiter plate and incubated for 1 h at 37° C. A solution of test compound (10 μL: prepared at 20× the desired final concentration) was added to each well and the plate was incubated for 1 h at 37° C. A solution (10 μL) of LPS in RPMI/1% FCS (200 ng/mL) was added and the wells were incubated overnight at 37° C. The supernate (100 μL) was removed from each well and diluted with RPMI/1% FCS (400 μL). The samples were analyzed for TNF-α using a commercial ELISA kit (Genzyme).
Background: ELISA stands for enzyme-linked immunosorbent assay.

Experiment [2] has as its system TNF-α. The experiment can be described thus: In vivo rodent assay for inhibition of LPS-induced TNF-α production. The arrangement: species or system Mice (BALB/cJ females). To be noted: 10 mg/kg oral; for inhibition in vivo at 10 mg/kg: Mus musculus, po. The protocol:
Mice (BALB/cJ females, Jackson Laboratories) or rats (Lewis males, Charles River) were fasted for 30 min. The animals were dosed orally on a mg/kg basis at a range of times prior to being injected intraperitoneally with LPS at 1 mg/kg and returned to their cages for 1 h. Animals were anesthetized by CO2, exsanguinated by cardiac puncture and whole blood collected (0.1-0.7 mL). The blood was allowed to clot and serum was transferred to a centrifuge tube. This sample was centrifuged, and serum was collected, aliquoted and frozen at −80° C. Samples were tested by commercial ELISA's for TNF-α (Endogen for mouse TNF-α and Biosource for rat TNF-α).

Where [3] appears, read: 0.5 h, 0.5 h, read-out: Mouse 10 mg/kg % inhib 0.5 h.
[4] abbreviates: 2 h, 2 h, read-out: Mouse 10 mg/kg % inhib 2 h.

SMILES strings stand for the structures. Like-named read-outs stand apart in the source and are kept apart here.

A word on the IC50: it is the concentration that gives 50% inhibition. Lower therefore signals higher potency. The compound `COC(=O)c1c(-c2ccc(F)cc2)c(-c2ccncc2)c(N2CCC(N)C2)n1C` (centres unmarked) [Cpd 113] showed an IC50 in experiment [1] of 237 nM. In experiment [2] (setting [3]), the inhibition in vivo at 10 mg/kg came to 25%.
In the same order, the values of `Cn1cc(-c2ccc(F)cc2)c(-c2ccncc2)c1CO` [Cpd 112] are 169 nM and 65%.
With `COC(=O)c1c(-c2ccncc2)c(-c2ccc(F)cc2)c(C#CCCN2CCOCC2)n1C` [Cpd 175], in experiment [1], half-maximal inhibition (IC50) was put at 32 nM. For the same compound, the inhibition in vivo at 10 mg/kg in experiment [2] (setting [4]) is -4%.
For `C=CC#Cc1c(-c2ccc(F)cc2)c(-c2ccncc2)c(C(=O)OC)n1C` [Cpd 176] the same measures were 34 nM and -20%.
For the compound `COC(=O)c1c(-c2ccc(F)cc2)c(-c2ccncc2)c(NCCN2CCCCC2)n1C` [Cpd 115], the midpoint of inhibition in experiment [1], the IC50, lay at 92 nM. In addition, the inhibition in vivo at 10 mg/kg in experiment [2] (setting [3]) is -36%.
`COC(=O)c1c(-c2ccc(F)cc2)c(-c2ccncc2)c(/N=C/N(C)C)n1C` [Cpd 15] gave an IC50 in experiment [1] of 5 nM. For the same compound, the inhibition in vivo at 10 mg/kg in experiment [2] (setting [3]) is 6%; in experiment [2] (setting [4]), -21%.
`COC(=O)c1c(-c2ccc(F)cc2)c(-c2ccncc2)c(NC2CCNCC2)n1C` [Cpd 131] yielded an IC50 in experiment [1] of 315 nM. Further, the inhibition in vivo at 10 mg/kg in experiment [2] (setting [3]) is 7%.
For `COC(=O)c1c(-c2ccc(F)cc2)c(-c2ccncc2)c(N2CCN(CC3CC3)CC2)n1C` [Cpd 128] the same measures were 269 nM and 66.3%.
As for `Cn1cc(-c2ccncc2)c(-c2ccc(F)cc2)c1-c1nnco1` [Cpd 35, 4-[4-(4-Fluorophenyl)-1-methyl-5-(1,3,4-oxadiazol-2-yl)-1H-pyrrol-3-yl]pyridine], inhibition in experiment [1] was half-maximal at 18 nM (IC50). For the same compound, the inhibition in vivo at 10 mg/kg in experiment [2] (setting [3]) was 60%; in experiment [2] (setting [4]), -1%.
`CCOC(=O)c1[nH]cc(-c2ccncc2)c1-c1cccc(C(F)(F)F)c1` [Cpd 57]: in experiment [1], the IC50 worked out at 96 nM. Besides, the inhibition in vivo at 10 mg/kg in experiment [2] (setting [3]) is -8%.
For `COC(=O)c1c(-c2ccncc2)c(-c2ccc(F)cc2)c(NCCN2CCOCC2)n1C` [Cpd 148] the same measures were 10000 nM and 91%.
For `CON(C)C(=O)c1c(-c2ccc(F)cc2)c(-c2ccncc2)c(N2CCN(C(=O)OC(C)(C)C)CC2)n1C` [Cpd 145] the same measures were 72 nM and 45%.
In the same order, the values of `CCOC(=O)c1c(-c2ccc(F)cc2)c(-c2ccncc2)c(CCCN2CCOCC2)n1C` [Cpd 19, 3-(4-Fluorophenyl)-1-methyl-5-[3-(4-morpholinyl)propyl]-4-(4-pyridinyl)-1H-pyrrole-2-carboxylic acid ethyl ester] are 756 nM and 34%.
For `COC(=O)c1c(-c2ccc(F)cc2)c(-c2ccncc2)c(N2CCN(C3CCCC3)CC2)n1C` [Cpd 125], the IC50 in experiment [1] is 139 nM. Besides, the inhibition in vivo at 10 mg/kg in experiment [2] (setting [3]) worked out at 48.6%.
Compound `CN1CCN(c2c(-c3ccncc3)c(-c3ccc(F)cc3)c(C#N)n2C)CC1` [Cpd 183] gave an IC50 in experiment [1] of 80 nM. For the same compound, the inhibition in vivo at 10 mg/kg in experiment [2] (setting [4]) came to 47%.
Regarding `CCNC(=O)N1CCN(c2c(-c3ccncc3)c(-c3ccc(F)cc3)c(C(=O)OC)n2C)CC1` [Cpd 13, 5-[4-[(Ethylamino)carbonyl]-1-piperazinyl]-3-(4-fluorophenyl)-1-methyl-4-(4-pyridinyl)-1H-pyrrole-2-carboxylic acid methyl ester], inhibition in experiment [1] was half-maximal at 2920 nM (IC50). Besides, in experiment [2] (setting [3]), the inhibition in vivo at 10 mg/kg is -38%.
For `O=C1CCn2c(Br)c(-c3ccncc3)c(-c3ccc(F)cc3)c21` [Cpd 129] the same measures were 819 nM and 31%.
Regarding `CC(=O)N1CCN(c2c(-c3ccncc3)c(-c3ccc(F)cc3)c(C#N)n2C)CC1` [Cpd 182], half-maximal inhibition in experiment [1] (IC50) required 154 nM. For the same compound, the inhibition in vivo at 10 mg/kg in experiment [2] (setting [4]) was determined as 81%.
`COC(=O)c1c(-c2ccc(F)cc2)c(-c2ccncc2)c(Nc2ccc(N3CCOCC3)cc2)n1C` [Cpd 159] showed an IC50 in experiment [1] of 1560 nM. In addition, the inhibition in vivo at 10 mg/kg in experiment [2] (setting [3]) was determined as 29%.
For `COC(=O)c1c(-c2ccc(F)cc2)c(-c2ccncc2)c(N2CCN(C(C)=O)CC2)n1C` [Cpd 116] the same measures were 1530 nM and 57%.
In the same order, the values of `COC(=O)C1Cn2cc(-c3ccncc3)c(-c3ccc(F)cc3)c2C1=O` (centres unmarked) [Cpd 21, 7-(4-Fluorophenyl)-2,3-dihydro-1-oxo-6-(4-pyridinyl)-1H-pyrrolizine-2-carboxylic acid methyl ester] are 29 nM and 44.7%.
Regarding `Cn1cc(-c2ccncc2)c(-c2ccc(F)cc2)c1CNC(=O)Nc1ccccc1` [Cpd 185], in experiment [1], the IC50 is 27 nM. Besides, in experiment [2] (setting [4]), the inhibition in vivo at 10 mg/kg came out at 82%.
`Cn1cc(-c2ccncc2)c(-c2ccc(F)cc2)c1C(=O)NCC(=O)c1ccccc1` [Cpd 34, 3-(4-Fluorophenyl)-1-methyl-N-(2-oxo-2-phenylethyl)-4-(4-pyridinyl)-1H-pyrrole-2-carboxamide] had an IC50 in experiment [1] of 157 nM. For the same compound, the inhibition in vivo at 10 mg/kg in experiment [2] (setting [3]) is 81%; in experiment [2] (setting [4]), 37%.
Compound `Cn1cc(-c2ccncc2)c(-c2ccc(F)cc2)c1C#N` [Cpd 168] yielded an IC50 in experiment [1] of 171 nM. Besides, in experiment [2] (2 h, 10 mg/kg), the “Mouse 10 mg/kg % inhib 2 h” value is listed as −19%. In addition, the inhibition in vivo at 10 mg/kg in experiment [2] (setting [3]) was determined as 67%.
For `CCN1C(=O)c2c(-c3ccncc3)c(-c3ccc(F)cc3)cn2C1=O` [Cpd 31, 2-Ethyl-6-(4-fluorophenyl)-7-(4-pyridinyl)-1H-pyrrolo[1,2-c]imidazole-1,3(2H)-dione], in experiment [1], 401 nM corresponded to half-maximal inhibition (IC50). The inhibition in vivo at 10 mg/kg in experiment [2] (setting [3]) is 72%.
For `Fc1ccc(-c2cn3c(c2-c2ccncc2)CNCC3)cc1` [Cpd 30, 7-(4-Fluorophenyl)-1,2,3,4-tetrahydro-8-(4-pyridinyl)-pyrrolo[1,2-a]pyrazine] the same measures were 208 nM and 71%.
In the same order, the values of `COCC#Cc1c(-c2ccc(F)cc2)c(-c2ccncc2)c(C(=O)OC)n1C` [Cpd 172] are 443 nM and -5%.
For `CCNC(=O)c1[nH]cc(-c2ccc(F)cc2)c1-c1ccncc1` [Cpd 32, N-Ethyl-4-(4-fluorophenyl)-3-(4-pyridinyl)-1H-pyrrole-2-carboxamide] the same measures were 209 nM and -24%.
As to `COC(=O)c1c(-c2ccc(F)cc2)c(-c2ccncc2)cn1C(C)=O` [Cpd 121], the IC50 in experiment [1] stood at 194 nM. Moreover, in experiment [2] (setting [3]), the inhibition in vivo at 10 mg/kg was -32.1%.
For `COC(=O)c1c(-c2ccc(F)cc2)c(-c2ccncc2)c(N2CCN(S(C)(=O)=O)CC2)n1C` [Cpd 12, 3-(4-Fluorophenyl)-1-methyl-5-[4-(methylsulfonyl)-1-piperazinyl]-4-(4-pyridinyl)-1H-pyrrole-2-carboxylic acid methyl ester] the same measures were 5860 nM and -29%.
In the same order, the values of `COC(=O)C1CCn2c(NCCN3CCOCC3)c(-c3ccncc3)c(-c3ccc(F)cc3)c2C1=O` (centres unmarked) [Cpd 23, 1-(4-Fluorophenyl)-5,6,7,8-tetrahydro-3-[[2-(4-morpholinyl)ethyl]amino]-8-oxo-2-(4-pyridinyl)-7-indolizinecarboxylic acid methyl ester] are 77 nM and 71%.
For the compound `COC(=O)CN1CCN(c2c(-c3ccncc3)c(-c3ccc(F)cc3)c(C(=O)OC)n2C)CC1` [Cpd 181], the IC50 in experiment [1] worked out at 5 nM. The inhibition in vivo at 10 mg/kg in experiment [2] (setting [4]) is 26%.
